Data on one substance can be found in PMC6058925 (JACC: Basic to Translational Science, 2017).

The assay concerns adult male CD1 mice, ischemia-reperfusion. The following applies: mouse, in vivo.

For the substance “AAT: plasma-derived alpha-1 antitrypsin (Aralast NP, Baxter)”, the “Infarct size when given with the LRP1 blocking antibody” value is given as “significant increase in infarct size”.
